Patent US9901596B2, “Regulation of body weight gain by using dibenzo-alpha-pyrones” (Natreon, Inc., priority 2013, dated 2018)

Assays:
Assay type in all cases: in vivo, C57/BL6 mice
[1] = Study 1: body weight gain in mice on standard laboratory diet, 12 weeks intragastric supplementation
From the text: Materials Used: Shilajit (PrimaVie®, Natreon, Inc., New Brunswick, N.J.), a standardized dietary supplement ingredient extracted and processed from Shilajit bearing rocks, containing not less than about 50% by weight fulvic acids (FAs), at least about 10% by weight dibenzo-α-pyrone chromoproteins, and at least 0.3%, or more, by weight total dibenzo-α-pyrones (DBPs), 3-OH-DBP (99.0% purity, Natreon, Inc.), and 3,8-(OH)2-DBP (99.0% purity, Natreon, Inc) were used.
Three groups of adult C57/BL6 mice (n=8) were intragastrically supplemented with purified Shilajit (PS), 3,8-dihydroxy-dibenzo-α-pyrone (3,8-(OH)2-DBP) or placebo for 12 weeks. Body weight was measured every week. At the end of week 12, skeletal muscle tissue was harvested for gene profiling. Some tissue was stored for histology and HPLC analysis.
The control group of mice received DMSO in corn oil while the PS group received 100 mg of purified Shilajit/kg body weight of mice, dissolved in water and the DBP group received 10 mg of 3,8-(OH)2-DBP/kg body weight of mice, dissolved in DMSO/corn oil.
At week 12, the following tissues were collected: heart, lung, liver, brain, muscles, adipose tissue, skeletal muscle (vastus lateralis) and whole blood.

[2] = Study 2: body weight gain in mice on standard laboratory diet, 10 then 50 mg/kg DBPs; conditions: for less body weight gain / less gain in body weight: 10 mg/kg b.w.; for less body weight gain: at 8 weeks; for less gain in body weight: at four weeks; for less weight gain: 3 weeks after increasing the dose to 50 mg/kg b.w. (from 13th week)
Description: Since the results from Study 1 were totally unexpected, Study 2 was carried out in order to validate the results from Study 1 and also to determine if another bioactive of Shilajit, 3-hydroxy-dibenzo-α-pyrone, may have a similar beneficial effect on controlling body weight gain. Study 2 was carried out under similar experimental conditions as Study 1, using standard laboratory diet, except that a 10 mg/kg body weight dose was administered for the first 12 weeks and then the dose was increased to 50 mg/kg body weight from the 13th week through the 19th week. The primary purpose of increasing the dose is to find out if the response is dose proportional. […] It is interesting to note that 3 weeks after increasing the dose of DBPs to 50 mg/kg b.w., 3-OH-DBP group still maintained about 45% less weight gain while the 3,8-(OH)2-DBP group retained only about 10% less weight gain. […] The secondary purpose of increasing the dose is to find out if increased dose is toxic. Different tissues were collected from the mice and toxicological examination will be conducted.

[3] = Study 3: body weight gain in mice on high fat diet, later switched to standard diet; conditions: starting at 14 weeks, after switching to standard laboratory diet
Description: Since the Studies 1 and 2 were carried out with standard laboratory diet, it was imperative to do a study with high fat diet fed mice. Study 3 was conducted using such a diet (Bio-Serve Cat# 534282, 36% fat). After 11 weeks, the high fat diet was replaced with the standard laboratory diet. […] However, starting at 14 weeks after switching to the standard laboratory diet, there is a trend in both the DBP groups for less weight gain compared to the placebo group. […] Thus, it is possible that the DBPs, especially the 3-OH-DBP, may have the potential to control body weight gain in individuals on fatty diet as well, though at a slower pace than in individuals on normal diet.

O=c1oc2cc(O)ccc2c2ccc(O)cc12 [3,8-(OH)2-DBP, 3,8-dihydroxy-dibenzo-α-pyrone]
weight gained in 90 days ([1]; 10 mg/kg body weight in DMSO/corn oil, intragastric, standard laboratory diet, 90 days): about 7.5%
overt signs of health compromise ([1]; 10 mg/kg body weight, 12 weeks): no overt signs of health compromise
age-dependent gain in body weight ([1]; standard laboratory diet/conditions): significant decrease
less body weight gain [2]: about 50%
less gain in body weight [2]: ~40%
less weight gain [2]: about 10%

O=c1oc2cc(O)ccc2c2ccccc12 [3-OH-DBP, 3-hydroxy-dibenzo-α-pyrone]
less body weight gain [2]: about 50%
less gain in body weight [2]: about 45%
less weight gain [2]: about 45%
trend for less weight gain compared to placebo [3]: especially prominent
